Values joined by “and” are separate entries in the source; they are usually repeats but may differ in a detail not shown here. Identical values can stand only once. Like-named read-outs stand apart in the source and are kept apart here.
Key:
[1] = test system: Gram-negative enteric bacilli; details: egg cooler conditions
Influenza A (H1N1) = test system: Influenza A (H1N1)
Procedure: Glass slides (1″×3″) are ethanol-sanitized and autoclaved prior to testing. The slides (carriers) are placed into sterile plastic petri dishes until use. Aliquots (0.010 ml) of diluted stock Influenza A (H1N1) are aseptically spread over a 1″×1″ square area of the carrier slide to prepare a virus film.
Virus Control carriers are placed into an adjacent modular room with the lids removed. One additional glass slide (with no virus film) is also placed into each testing chamber to perform cytotoxicity and neutralization validation controls. Upon closure of the respective study contact times (T=60 min and T=120 min), duplicate carriers are removed from each testing chamber. Duplicate carriers are also removed from the control modular room at each time point. Duplicate time zero carriers are harvested and enumerated promptly by eluting the films with 2 ml of Influenza Infection Medium. Serial dilutions (1:10) are performed and dilutions 10^−1 to 10^−5 are plated in quadruplicate onto Madin-Darby Canine Kidney (MDCK) cell monolayers prepared to suitable confluency. Cell culture assay trays are incubated at 35° C. on an orbital rotator (60 rotations/minute) for 60 minutes to facilitate viral-host adsorption. Trays are removed from incubation, and Influenza infection Media is pipetted into each well (˜1.0 ml). The trays are incubated for 7 days. The assay trays are observed regularly for the presence of cytotoxicity, viral cytopathic effects, and contamination. At the end of 7 days, plates are scored and the Spearman-Karber Method is used to compute viral titers and levels of cytotoxicity.

Salmonella = details: hatchery environment (egg room and incubators); after 28 days
Other blue green = test system: Other blue green
From the text: (§1) Hatcheries and chick production facilities are subject to heavy bacterial loads that are difficult to control. In addition to the animals themselves, there is a significant contamination of the facilities from the outside.

Total bacteria = test system: Total bacteria
From the text: as §1

Aspergillus fumigatus = test system: Aspergillus fumigatus
From the text: as §1

[2] = test system: S. aureus ATCC 33592 (MRSA)
bacteria growing on TSA = details: for number of bacteria growing on TSA: test room, DHP about 0.1 ppm, FIGS. 13A-B
[3] = Hood Chamber, 60 minutes contact
[4] = Hood Chamber, 120 minutes contact
[5] = Modular Room, 60 minutes contact, DHP 0.6 to 1.0 ppm
[6] = Modular Room, 120 minutes contact, DHP 0.6 to 1.0 ppm
[7] = 6 Hours contact, Hood (Treated)
[8] = 6 Hours contact, Room (Treated)
[9] = 24 Hours contact, Hood (Treated)
[10] = 24 Hours contact, Room (Treated)
[11] = 48 Hours contact, Hood (Treated)
[12] = 48 Hours contact, Room (Treated)

For `OO` [DHP, dry hydrogen peroxide], the “growth on Mac at 72 hours compared to 0 hours” value ([1]; treated group, FIG. 14) was “significantly less growth”, the Mac growth ([1]; treatment, 0 to 120 hours) was “low throughout” and the “% Reduction” value (Influenza A (H1N1); [3]) was 99.8%. The Log10 reduction (Influenza A (H1N1); [3]) was “>=2.62”, the “% Reduction” value (Influenza A (H1N1); [4]) was 98.6% and the Log10 reduction (Influenza A (H1N1); [4]) was “>=1.87”. For the same molecule, the “% Reduction” value (Influenza A (H1N1); [5]) was 87%, the Log10 reduction (Influenza A (H1N1); [5]) was 0.87 and the “% Reduction” value (Influenza A (H1N1); [6]) was 76%. For the same molecule, the Log10 reduction (Influenza A (H1N1); [6]) was 0.62, the “reduction of Salmonella on the egg surface” value (Salmonella) was 83.3% and the Kill (Other blue green) was 49983. The Reduction (Other blue green) was 99.89%, the Post (Other blue green; hatchery after DHP) was 56 and the “reduction of bacterial loads in hatcheries” value (Total bacteria; DHP treatment) was “over 90%”. The Kill (Total bacteria; Total (sum of all categories)) was 650019, the Post (Total bacteria; Total (sum of all categories)) was 50167 and the Kill (Total bacteria; Total bacteria) was 550037. It also gave a Reduction (Total bacteria; Total bacteria) of 91.65%, a Post (Total bacteria; Total bacteria, hatchery after DHP) of 50110 and a Kill (Aspergillus fumigatus) of 49999. For the same molecule, the Reduction (Aspergillus fumigatus) was 99.99%, the Post (Aspergillus fumigatus; hatchery after DHP) was 1 and the “% Reduction compared to Control” value [2, 7] was 95.150%. For the same molecule, the “Average CFU/Carrier” value [2, 7] was 2.51E+05 CFU/Carrier, the “Log Reduction compared to Control” value [2, 7] was 1.31 and the “Replicate CFU/Carrier” value [2, 7] was 1.62E+05 CFU/Carrier and 3.40E+05 CFU/Carrier. For the same molecule, the “% Reduction compared to Control” value [2, 8] was 83.053%, the “Average CFU/Carrier” value [2, 8] was 8.77E+05 CFU/Carrier and the “Log Reduction compared to Control” value [2, 8] was 0.77. For the same molecule, the “Replicate CFU/Carrier” value [2, 8] was 2.54E+05 CFU/Carrier and 1.50E+06 CFU/Carrier, the “% Reduction compared to Control” value [2, 9] was greater than 66.667% and the “Average CFU/Carrier” value [2, 9] was less than 1.50E+01 CFU/Carrier. The “Log Reduction compared to Control” value [2, 9] was greater than 0.48, the “Replicate CFU/Carrier” value [2, 9] was 2.50E+01 CFU/Carrier and <5.00E+00 CFU/Carrier and the “% Reduction compared to Control” value [2, 10] was greater than 88.889%. For the same molecule, the “Average CFU/Carrier” value [2, 10] was less than 5.00E+00 CFU/Carrier, the “Log Reduction compared to Control” value [2, 10] was greater than 0.95 and the “Replicate CFU/Carrier” value [2, 10] was 5.00E+00 CFU/Carrier and <5.00E+00 CFU/Carrier. The “% Reduction compared to Control” value [2, 11] was greater than 78.947%, the “Average CFU/Carrier” value [2, 11] was less than 1.00E+01 CFU/Carrier and the “Log Reduction compared to Control” value [2, 11] was greater than 0.68. The “% Reduction compared to Control” value [2, 12] was greater than 89.474%, the “Average CFU/Carrier” value [2, 12] was less than 5.00E+00 CFU/Carrier and the “Log Reduction compared to Control” value [2, 12] was greater than 0.98. The “Replicate CFU/Carrier” value [2, 12] was less than 5.00E+00 CFU/Carrier, the TSA growth (bacteria growing on TSA; egg cooler conditions, treatment, 0 to 120 hours) was “static until 120 hours” and the “number of bacteria growing on TSA” value (bacteria growing on TSA; after 72 hours (P=0.05)) was “significantly reduced”. For the same molecule, the “number of bacteria growing on TSA” value (bacteria growing on TSA; after 120 hours (P=0.05)) was “significantly reduced”.
